A short description of data set [1]: in vitro. To be noted: human, human saliva (centrifuged, filtered supernatant).
Method: (§1) The collected saliva samples were centrifuged at 12,000 rpm for 20 min^21]. The supernatant was filtered to remove any debris. […] At 0, 0.5, 1, 2, 4, and 6 h, 40 uL solutions were taken from each sample and were analysed by High Performance Liquid Chromatography (HPLC-UV, 1525 Binary HPLC Pump, 2489 UV/Visible Detector, Waters, USA).
A short description of data set [2]: in vitro. To be noted: mouse, MC3T3-E1 cells.
Method: (§2) Cells exposed to α-MEM without peptide was the control group. Cells viability after peptide exposure was evaluated by cell survival rate using Cell Counting Kit-8 assay (CCK-8 assay, Sigma-Aldrich, St. Louis, USA).
For data set [3] the following is noted: for Peptide concentration incubated in human saliva: 37° C.
Method: as §1

SMILES strings stand for the structures. Read-outs that look alike come from different tables or passages of the source. Residues, ends and D or L forms follow the SMILES beside them.

Method for MC3T3-E1 cells: as §2

Consider `CC(C)C[C@H](NC(=O)[C@H](CCCNC(=N)N)NC(=O)[C@H](Cc1ccccc1)NC(=O)[C@H](Cc1ccccc1)NC(=O)[C@@H](NC(=O)[C@H](COP(=O)(O)O)NC(=O)[C@@H](N)COP(=O)(O)O)[C@@H](C)O)C(=O)N[C@@H](Cc1ccccc1)C(=O)N[C@@H](CC(N)=O)C(=O)N[C@@H](CCCNC(=N)N)C(=O)N[C@@H](C)C(=O)N[C@@H](CCCCN)C(=O)N[C@@H](CCCNC(=N)N)C(=O)N[C@@H](Cc1c[nH]cn1)C(=O)N[C@@H](Cc1c[nH]cn1)C(=O)NCC(=O)N[C@@H](Cc1ccc(O)cc1)C(=O)N[C@@H](CCCCN)C(=O)N[C@@H](CCCNC(=N)N)C(=O)N[C@@H](CCCCN)C(=O)N[C@@H](Cc1ccccc1)C(=O)N[C@@H](Cc1c[nH]cn1)C(=O)O` [DPS-C8-P-113] (HELM PEPTIDE1{[N[C@@H](COP(=O)(O)O)C(=O)[*:2]].[O=C([C@H](COP(=O)(O)O)N[*:1])[*:2]].T.F.F.R.L.F.N.R.A.K.R.H.H.G.Y.K.R.K.F.H}$$$$V2.0), for which the Cytocompatibility entry in the data set on MC3T3-E1 cells is listed as “+”. Besides, the amount remaining (in general, what is left of the initial amount, in per cent) at 6 h, 1 mg mL^−1 in “in vitro [1]” came out at 56.2%. In addition, the viability (in general, a per cent measure of how many cells are alive, often set against a control) at 24 h, 2 ×MBC in “in vitro [2]” was found to be 48%. Further, the “Peptide concentration incubated in human saliva” value in data set [3] (0 h) worked out at 1 mg/mL; in data set [3] (0.5 h) it was 0.9818 mg/mL; in data set [3] (1 h) it was 0.9785 mg/mL; in data set [3] (2 h), 0.9504 mg/mL; in data set [3] (4 h), 0.5388 mg/mL; in data set [3] (6 h), 0.562 mg/mL. In data set [3] (summary grade), the Stability result is on record as “++”.

The values are drawn from patent US20250296961A1, “ANTIMICROBIAL PEPTIDES FOR REMINERALIZATION OF TEETH AND PREVENTION OF DENTAL CARIES” (The University of Hong Kong, priority 2021, published 2025).
